In ChEMBL document CHEMBL1138550, “Adamantane derivatives of thiazolyl-N-substituted amide, as possible non-steroidal anti-inflammatory agents” (2009):

Tests used:
Rattus norvegicus = assay: Antiinflammatory activity in AKR rat assessed as inhibition of carrageenan-induced right hind paw oedema at 0.2 mmol/kg, ip coadministered with carrageenan relative to control; type: functional
[1] = target: T1, Prostaglandin G/H synthase 1 (Ovis aries) (UniProt P05979); assay: Inhibition of ovine COX1 at 200 uM by enzyme immuno assay
T1 sequence (whole entry): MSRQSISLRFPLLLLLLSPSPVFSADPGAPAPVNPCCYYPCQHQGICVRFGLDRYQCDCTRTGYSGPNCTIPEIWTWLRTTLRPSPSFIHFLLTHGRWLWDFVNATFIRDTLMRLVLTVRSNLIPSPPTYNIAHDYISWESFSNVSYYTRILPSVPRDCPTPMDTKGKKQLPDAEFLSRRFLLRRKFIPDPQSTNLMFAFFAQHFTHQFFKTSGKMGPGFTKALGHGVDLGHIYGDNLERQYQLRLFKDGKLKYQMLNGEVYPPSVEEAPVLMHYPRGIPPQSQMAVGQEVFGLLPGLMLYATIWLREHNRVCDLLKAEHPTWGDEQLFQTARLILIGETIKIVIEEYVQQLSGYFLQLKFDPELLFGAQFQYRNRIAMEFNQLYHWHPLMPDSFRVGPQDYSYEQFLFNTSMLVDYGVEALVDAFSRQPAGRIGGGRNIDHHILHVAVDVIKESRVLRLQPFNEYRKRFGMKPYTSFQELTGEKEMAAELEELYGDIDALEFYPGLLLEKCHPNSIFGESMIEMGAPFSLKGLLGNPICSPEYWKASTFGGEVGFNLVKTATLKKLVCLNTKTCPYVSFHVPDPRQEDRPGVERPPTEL

[2] = target: T2, Prostaglandin G/H synthase 2 (Homo sapiens) (UniProt P35354); assay: Inhibition of human recombinant COX2 at 200 uM by enzyme immuno assay
T2 sequence (whole entry): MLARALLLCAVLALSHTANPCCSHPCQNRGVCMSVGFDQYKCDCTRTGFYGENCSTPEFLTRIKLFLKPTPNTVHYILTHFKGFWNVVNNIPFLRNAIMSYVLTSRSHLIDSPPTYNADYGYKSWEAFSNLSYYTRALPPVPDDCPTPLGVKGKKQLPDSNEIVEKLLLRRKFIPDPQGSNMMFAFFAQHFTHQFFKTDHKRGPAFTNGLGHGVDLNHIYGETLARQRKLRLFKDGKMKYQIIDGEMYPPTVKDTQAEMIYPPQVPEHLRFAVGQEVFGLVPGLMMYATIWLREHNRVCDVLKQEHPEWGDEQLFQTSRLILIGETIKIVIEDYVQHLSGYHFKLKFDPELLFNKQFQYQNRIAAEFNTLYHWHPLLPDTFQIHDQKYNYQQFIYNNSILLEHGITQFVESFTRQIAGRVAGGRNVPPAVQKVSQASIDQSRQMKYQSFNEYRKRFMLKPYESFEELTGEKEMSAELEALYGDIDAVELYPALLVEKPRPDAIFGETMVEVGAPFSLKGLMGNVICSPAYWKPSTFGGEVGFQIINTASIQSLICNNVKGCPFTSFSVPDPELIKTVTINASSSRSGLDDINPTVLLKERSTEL

[3] = target: T3, Seed linoleate 13S-lipoxygenase-1 (Glycine max) (UniProt P08170); assay: Inhibition of soybean LOX1 at 100 uM
T3 sequence (whole entry): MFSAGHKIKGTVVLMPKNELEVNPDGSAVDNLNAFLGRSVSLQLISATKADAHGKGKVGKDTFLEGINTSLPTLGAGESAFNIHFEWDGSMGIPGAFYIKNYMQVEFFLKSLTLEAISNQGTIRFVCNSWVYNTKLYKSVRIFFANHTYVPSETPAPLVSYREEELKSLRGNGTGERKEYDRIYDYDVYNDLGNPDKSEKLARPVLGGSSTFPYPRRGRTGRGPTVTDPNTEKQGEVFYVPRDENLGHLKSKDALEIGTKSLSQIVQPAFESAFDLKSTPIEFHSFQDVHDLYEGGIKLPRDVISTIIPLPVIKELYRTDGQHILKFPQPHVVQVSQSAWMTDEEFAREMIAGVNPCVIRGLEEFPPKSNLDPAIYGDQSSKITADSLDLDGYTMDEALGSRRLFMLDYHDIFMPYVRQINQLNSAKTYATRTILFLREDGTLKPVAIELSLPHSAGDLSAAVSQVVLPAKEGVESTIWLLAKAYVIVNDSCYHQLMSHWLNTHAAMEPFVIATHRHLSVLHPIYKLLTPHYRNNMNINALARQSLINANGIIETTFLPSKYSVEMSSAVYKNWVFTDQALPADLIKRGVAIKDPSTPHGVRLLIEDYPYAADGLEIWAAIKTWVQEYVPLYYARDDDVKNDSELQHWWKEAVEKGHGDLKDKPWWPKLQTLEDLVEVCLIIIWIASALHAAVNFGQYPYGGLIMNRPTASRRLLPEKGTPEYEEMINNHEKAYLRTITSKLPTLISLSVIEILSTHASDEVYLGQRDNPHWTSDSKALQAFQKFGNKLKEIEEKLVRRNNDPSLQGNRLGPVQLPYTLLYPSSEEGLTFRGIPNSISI

[4] = target: T1, Prostaglandin G/H synthase 1 (Ovis aries); assay: Inhibition of ovine COX1 at 20 uM by enzyme immuno assay
[5] = target: T2, Prostaglandin G/H synthase 2 (Homo sapiens); assay: Inhibition of human recombinant COX2 at 20 uM by enzyme immuno assay

Structure (SMILES)	inhibition in vivo at 200 µmol/kg (Rattus norvegicus) [%]	inhibition [3] [%]	further results
O=C(CCN1CCCC1)Nc1nc(-c2ccccc2)cs1	68.4	–	–
O=C(CN1CCN(c2ccccc2)CC1)Nc1nc(C23CC4CC(CC(C4)C2)C3)cs1	47.6	33	inhibition [1]: 43.6%; inhibition [2]: 15.8%
COc1ccc(-c2csc(NC(=O)CN3CCCCC3)n2)cc1	53.3	–	–
CN1CCN(CC(=O)Nc2nc(C34CC5CC(CC(C5)C3)C4)cs2)CC1	30	–	–
CN(C)CC(=O)Nc1nc(C23CC4CC(CC(C4)C2)C3)cs1	48	26.4	inhibition [1]: 25%; inhibition [2]: 3.6%
Cc1csc(NC(=O)CN(C)C)n1	37.6	–	–
O=C(CN1CCCC1)Nc1nc(C23CC4CC(CC(C4)C2)C3)cs1	69.7	5	inhibition [1]: 33.6%; inhibition [2]: 12.2%
CN(C)CCC(=O)Nc1nc(C23CC4CC(CC(C4)C2)C3)cs1	81.5	1	inhibition [1]: 25%; inhibition [2]: 8.6%
COc1ccc(-c2csc(NC(=O)CCN3CCOCC3)n2)cc1	55.4	–	–
O=C(CCN1CCCC1)Nc1nc(C23CC4CC(CC(C4)C2)C3)cs1	36.8	–	–
COc1ccc(-c2csc(NC(=O)CN3CCCC3)n2)cc1	55	–	–
O=C(CCN1CCOCC1)Nc1nc(C23CC4CC(CC(C4)C2)C3)cs1	49.2	8.4	–
O=C(CN1CCCC1)Nc1nc(-c2ccccc2)cs1	49.2	–	–
O=C(CN1CCOCC1)Nc1nc(C23CC4CC(CC(C4)C2)C3)cs1	57.8	0	inhibition [1]: 27.9%; inhibition [2]: 35.3%
O=C(CCN1CCN(c2ccccc2)CC1)Nc1nc(C23CC4CC(CC(C4)C2)C3)cs1	55.9	39	inhibition [4]: 28.6%; inhibition [5]: 17.3%
O=C(CCN1CCCC1)Nc1nccs1	64.1	–	–
O=C(CN1CCCCC1)Nc1nc(C23CC4CC(CC(C4)C2)C3)cs1	26.6	0	–
CN(C)CC(=O)Nc1nc(-c2ccccc2)cs1	52	–	–
COc1ccc(-c2csc(NC(=O)CN(C)C)n2)cc1	35	–	–
COc1ccc(-c2csc(NC(=O)CCN3CCCC3)n2)cc1	56.2	–	–
O=C(CN1CCN(c2ccccc2)CC1)Nc1nccs1	72.1	–	–
CN(C)CC(=O)Nc1nccs1	28.4	–	–
